Assay results published in article PMC9090388, “Design, synthesis, biological evaluation and QSAR analysis of novel N-substituted benzimidazole derived carboxamides” (Journal of Enzyme Inhibition and Medicinal Chemistry, 2022).
Where “and” joins values, the source holds several entries; their conditions need not be identical. Equal values may be shown once.

Tests used:
[1] = DPPH free radical scavenging (reducing activity of the stable radical DPPH); format: biochemical; conditions: DPPH 50 µM in absolute ethanol; – = did not show any DPPH activity
Method: The reducing activity of investigated systems was achieved by the DPPH method according to previously described procedures with modifications to assure the use in a 96-well microplate. Briefly, equal volumes of various concentrations of tested molecules (dissolved in DMSO) were added to the solution of DPPH (final concentration 50 µM in absolute ethanol). Ethanol and DMSO were used as control solutions in line with earlier reports.[27]

H 460 (lung carcinoma) = test: Antiproliferative activity in vitro, MTT, 72 h; format: cell-based, human; conditions: for IC50: Homo sapiens, NCI-H460, 72 h, concentration that causes 50% growth inhibition, 72 h, MTT; for selectivity of antiproliferative activity among cell lines: H 460 versus HCT116, MCF-7, HEK 293
Method: (§1) The experiments were performed on four human cell lines, including HCT 116 (colon carcinoma), H 460 (lung carcinoma), MCF-7 (breast carcinoma) and HEK 293 (human embryonic kidney cells), in line with previously published experimental procedures[10]^,[25]. Briefly, the cells were grown in DMEM medium with the addition of 10% foetal bovine serum (FBS), 2 mM L-glutamine, 100 U/mL penicillin and 100 µg/mL streptomycin, and cultured as monolayers at 37 °C in a humidified atmosphere with 5% CO2. Cells were seeded at 2 × 10^3 cells/well in a standard 96-well microtiter plates and left to attach for 24 h. Next day, a test compound was added in five serial 10-fold dilutions. The rate of cell growth was evaluated after 72 h of incubation with MTT reagent. The obtained results are expressed as IC50 values, calculated from the concentration-response curves using linear regression analysis by fitting the test concentrations that give PG values above and below the reference value (i.e. 50%). Each test was performed in quadruplicate in at least two individual experiments.

HCT116 (colon carcinoma) = test: Antiproliferative activity in vitro, MTT, 72 h; format: cell-based; conditions: Homo sapiens, HCT-116, 72 h, concentration that causes 50% growth inhibition
Method: as §1

MCF-7 (breast carcinoma) = test: Antiproliferative activity in vitro, MTT, 72 h; format: cell-based; conditions: Homo sapiens, MCF7, concentration that causes 50% growth inhibition
Method: as §1

[2] = test system: HEK 293 (human embryonic kidney cells); test: Antiproliferative/cytotoxic activity in vitro on non-tumour cells, MTT, 72 h; format: cell-based; conditions: for IC50: Homo sapiens, HEK293, non-tumour cell line, concentration that causes 50% growth inhibition, 72 h, MTT
Method: as §1

[3] = Ferric reducing/antioxidant power (FRAP assay); format: biochemical; conditions: triplicate; – = not active in the FRAP assay
Method: The FRAP method was carried out according to previously described procedures with some modifications to be compatible with an assay on a 96-well microplate. All results were expressed as Fe^2+ equivalents (Fe^2+ µmol).

Nrf2 = test: Western blot analysis of Nrf2 in cytoplasmic and nuclear fraction; format: cell-based, human; conditions: HCT116 cells, 1 h; 34 at 50 µM, 40 at 5 µM, hydrogen peroxide 4 mM
Method: Cell line HCT116 was seeded in 60 mm cell culture dishes (TPP, Switzerland) in a concentration of 9 × 10^5 cells/dish. Next day, the cells were treated with 4 mM hydrogen peroxide as a positive control for ROS induction and with compounds 34 and 40 (50 µM and 5 µM, respectively) for 1 h. Nuclear extracts from the cells were prepared using nuclear extraction buffer kit (Abcam, Cambridge, UK, ab113474) according to the manufacturer instructions. BCA assay (Sigma Aldrich, Taufkirchen, Germany) was performed for the determination of the protein concentration in nuclear and cytoplasm fractions. Denaturation of 1 μg of total proteins in Laemmli SDS loading buffer was performed at 95 °C for 5 min. After loading, 10% SDS poly-acrylamide gel electrophoresis was carried out and then proteins were transferred to nitrocellulose membranes. Afterwards, the membranes were blocked in blocking buffer (ImmobilonBlock – CH (Chemiluminescent Blocker), MerckKGaA, Darmstadt, Germany) and incubated 5 h at room temperature with primary antibody dissolved in ImmobilonBlock – CH (Chemiluminescent Blocker). After the membranes were washed three times for five minutes each with Tris-buffered saline with 0.5% Tween 20 (TBST), they were incubated in the corresponding secondary antibody for 1 h at room temperature or overnight at 4 °C. After washing with TBST, the membranes were processed for enhanced chemiluminescence (ECL) Clarity Max Western ECL Substrate (Bio-Rad Laboratories, Hercules, CA, USA) and captured using Odyssey Fc (LICOR, Bad Homburg, Germany). The primary antibody used was anti-Nrf2, (dilution 1:500, Anti-Nrf2 antibody: ab133347, Abcam), Histon H3 (dilution 1:2000, Anti-H3 antibody: Ab1791, Abcam), β-actin (dilution 1:500, sc-47778, Santa Cruz Biotechnology) and corresponding secondary HRP-conjugated IgG antibody (dilution 1:2000, mouse IgGκ, Santa Cruz Biotechnology).
Figure 5. Nrf2 protein levels in the cytoplasmic and the nuclear fraction of HCT116 cells, assessed by Western blot analysis. […]

Row | IC50 [1] | IC50 (H 460 (lung carcinoma)) | IC50 (HCT116 (colon carcinoma)) | IC50 (MCF-7 (breast carcinoma)) | Structure (SMILES) | IC50 [2] | FRAP [3] | selectivity of antiproliferative activity among cell lines (H 460 (lung carcinoma)) | cytotoxicity towards non-tumour cell line compared with tumour cells ([2]; HEK 293 versus tumour cancer cells) | translocation of Nrf2 to the nucleus (nuclear expression of Nrf2) (Nrf2)
1 | ~3780 µM and 3780 µM | 10.7 ± 2.3 µM | 18.7 ± 5.1 µM | 11.9 ± 7.5 µM | Cn1c(NC(=O)c2ccccc2)nc2ccccc21 [Compound 28, N-(1-Methyl-1H-benzo[d]imidazol-2-yl)benzamide] | 29.5 ± 12.5 µM | 538.81 mmolFe^2+/mmolC and 358.81 ± 4.83 mmolFe^2+/mmolC | – | – | –
2 | – | 4.53 ± 7.3 µM | 30.1 ± 13.2 µM | 29.4 ± 19.4 µM | COc1cc(C(=O)Nc2nc3ccc(C#N)cc3n2-c2ccccc2)cc(OC)c1OC [Compound 51, N-(6-Cyano-1-phenyl-1H-benzo[d]imidazol-2-yl)-3,4,5-trimethoxybenzamide] | 61.1 ± 35.7 µM | 132.56 ± 18.06 mmolFe^2+/mmolC | selective activity against H 460 | – | –
3 | 4920 ± 130 µM | 1.7 ± 0.1 µM | 3.1 ± 0.7 µM | 4.6 ± 1.4 µM | COc1cc(C(=O)Nc2nc3ccccc3n2CC(C)C)cc(OC)c1OC [Compound 39, N-(1-Isobutyl-1H-benzo[d]imidazol-2-yl)-3,4,5-trimethoxybenzamide] | 2 ± 0.9 µM | 217.20 ± 3.69 mmolFe^2+/mmolC | – | – | –
4 | 6820 ± 410 µM | 17.6 ± 6.7 µM | 23.1 ± 15 µM | 32.8 ± 15.6 µM | COc1cc(C(=O)Nc2nc3ccccc3[nH]2)cc(OC)c1OC [Compound 27, N-(1H-Benzo[d]imidazol-2-yl)-3,4,5-trimethoxybenzamide] | 23.6 ± 4.4 µM | 5.59 ± 0.62 mmolFe^2+/mmolC | – | – | –
5 | – | 0.1 ± 0.04 µM | 5 ± 2 µM | 1 ± 0.7 µM | COc1cc([C@@H]2c3cc4c(cc3[C@@H](O[C@@H]3O[C@@H]5CO[C@@H](C)O[C@H]5[C@H](O)[C@H]3O)[C@H]3COC(=O)[C@H]23)OCO4)cc(OC)c1O [Etoposide, reference compound] | – | – | – | – | –
6 | 6040 ± 290 µM | 17.7 ± 0.8 µM | 18.1 ± 1.4 µM | 23.8 ± 12.4 µM | COc1cc(C(=O)Nc2nc3ccccc3n2C)cc(OC)c1OC [Compound 31, 3,4,5-Trimethoxy-N-(1-methyl-1H-benzo[d]imidazol-2-yl)benzamide] | 21.7 ± 9.4 µM | 124.28 ± 1.23 mmolFe^2+/mmolC | – | – | –
7 | – | – | ~0.6 µM | 3.1 ± 1.7 µM | COc1cc(C(=O)Nc2nc3ccc(C#N)cc3n2CC(C)C)cc(OC)c1OC [Compound 43, N-(6-Cyano-1-isobutyl-1H-benzo[d]imidazol-2-yl)-3,4,5-trimethoxybenzamide] | 4.7 ± 1 µM | 243.30 ± 3.39 mmolFe^2+/mmolC | – | – | –
8 | 4510 ± 20 µM | 5.1 ± 2.6 µM | 3.8 ± 0.9 µM | 2.7 ± 1.9 µM | CC(C)Cn1c(NC(=O)c2ccccc2)nc2ccccc21 [Compound 36, N-(1-Isobutyl-1H-benzo[d]imidazol-2-yl)benzamide] | 5.9 ± 2.4 µM | 179.70 ± 23.42 mmolFe^2+/mmolC | – | – | –
9 | 11500 ± 1500 µM | – | ~0.6 µM | 2.2 ± 1.9 µM | CC(C)Cn1c(NC(=O)c2ccccc2)nc2ccc(C#N)cc21 [Compound 40, N-(6-Cyano-1-isobutyl-1H-benzo[d]imidazol-2-yl)benzamide] | 9.1 ± 1 µM | 203.50 ± 10.53 mmolFe^2+/mmolC | – | significantly less cytotoxic towards non-tumour cell line HEK 293 | did not promote the translocation of Nrf2 to the nucleus
10 | ~5680 µM and 5680 µM | 21.9 ± 2.9 µM | 47.6 ± 30 µM | 46.9 ± 35.4 µM | COc1ccc(C(=O)Nc2nc3ccc(C#N)cc3n2C)c(OC)c1 [Compound 34, N-(6-Cyano-1-methyl-1H-benzo[d]imidazol-2-yl)-2,4-dimethoxybenzamide] | 93.3 ± 2.3 µM | 618.10 mmolFe^2+/mmolC and 618.10 ± 66.10 mmolFe^2+/mmolC | – | – | did not promote the translocation of Nrf2 to the nucleus
11 | – | – | – | – | OO [hydrogen peroxide, reference compound] | – | – | – | – | significantly higher in the nucleus
12 | – | 0.8 ± 1.5 µM | 1.6 ± 0.9 µM | 2.9 ± 1.3 µM | COc1cc(C(=O)Nc2nc3ccccc3n2-c2ccccc2)cc(OC)c1OC [Compound 47, 3,4,5-Trimethoxy-N-(1-pheny-1H-benzo[d]imidazol-2-yl)benzamide] | 5.3 ± 2.4 µM | 236.90 ± 1.50 mmolFe^2+/mmolC | selective activity against H 460 | – | –
13 | – | 3.9 ± 0.9 µM | 5.2 ± 4.2 µM | 5.5 ± 3.2 µM | COc1cc(C(=O)Nc2nc3ccc(C#N)cc3n2C)cc(OC)c1OC [Compound 35, N-(6-Cyano-1-methyl-1H-benzo[d]imidazol-2-yl)-3,4,5-trimethoxybenzamide] | 12.3 ± 1.5 µM | 338.50 ± 21.56 mmolFe^2+/mmolC | – | – | –
